Measured values from article PMC4747340, “A new class of small molecule estrogen receptor-alpha antagonists that overcome anti-estrogen resistance” (Oncotarget, 2015).

Legend:
Format in all cases: cell-based
ER-α = biological target: T1, ER-α (Homo sapiens, UniProt P03372); test: E2-stimulated ER-α activity, ERE-TK-Luc reporter in transfected DU-145 cells; settings: DU-145 transfected with ER-α, E2 10 nM, compound 20 μM, 24 hr
T1 construct: expressed in transfected cells; host or cells: DU-145
Protocol: Figure 12 Compound 35446 inhibits the activity of ER-β Subconfluent proliferating DU-145 cells in 24-well dishes were transfected overnight with the ER=α or ER=β expression vector plus the ERE-TK-Luc reporter plasmid (0.25 μg per plasmid/well), washed, and allowed to recover for several hours in fresh culture medium. The cells were then post-incubated for 24 hr to allow gene expression, after which they were treated ± E2 (10 nM) and ± compound 35446 (20 μM) (or compound B2 as a negative control) for 24 hr and assayed for luciferase activity. Luciferase activity is expressed relative to the no E2 control. Values are means ± SEMs of four replicate wells. The data shown in each panel are representative of three independent experiments.
Subconfluent cells in 24-well dishes were transfected overnight with 0.25 μg of each indicated vector plus the ERE-TK-Luc reporter in serum-free DMEM containing Lipofectamine2000 (Life Technologies, Washington, DC). Total transfected DNA was kept constant by addition of control vector. The cells were washed, incubated in phenol red-free DMEM containing 5% charcoal-stripped serum (obtained from the Tissue Culture Shared Resource) (0.2 ml/well) ± E2 (10 nM) ± the indicated compound for 24-hr, and harvested for luciferase assays. For each assay condition was tested in quadrupicate. […]

ER Glu353Ala = biological target: T2, ER Glu353Ala (Homo sapiens, UniProt P03372, E353A); test: ER mutation analysis, ERE-TK-Luc reporter in transfected MDA-MB-231 cells; settings: MDA-MB-231 transfected with mutant ER, E2 10 nM, 24 hr
T2 construct: expressed in transfected cells; host or cells: MDA-MB-231
From the text: (§1) B., C. Panels B and C show a comparison of the ER interaction of one of our original series of compounds (A7) (B) and one new compounds (48693-K/1) (C). ER is represented by gray ribbon and its residues interacting with the compounds are drawn with wireframe and labeled. […] The hydrogen bond interaction with ARG 394 is shown in green line. […] The cells were harvested for luciferase assays. Luciferase values are expressed as a percent of the +E2 vehicle control and are means ± SEMs of four wells. The data shown in panels D to G are representative of three independent experiments.
(§2) Subconfluent cells in 24-well dishes were transfected overnight with 0.25 μg of each indicated vector plus the ERE-TK-Luc reporter in serum-free DMEM containing Lipofectamine2000 (Life Technologies, Washington, DC). Total transfected DNA was kept constant by addition of control vector. The cells were washed, incubated in phenol red-free DMEM containing 5% charcoal-stripped serum (obtained from the Tissue Culture Shared Resource) (0.2 ml/well) ± E2 (10 nM) ± the indicated compound for 24-hr, and harvested for luciferase assays. For each assay condition was tested in quadrupicate. To monitor the transfection efficiency, cultures were co-transfected with plasmid pRSV-β-gal (Promega, Madison, WI) to visualize transfected cells by X-gal staining.

ER Trp393Ala = biological target: T3, ER Trp393Ala (Homo sapiens, UniProt P03372, W393A); test: as above; settings: MDA-MB-231 transfected with mutant ER, E2 10 nM, 24 hr
T3 construct: expressed in transfected cells; host or cells: MDA-MB-231
From the text: as §1, §2

ER His356Ala = biological target: T4, ER His356Ala (Homo sapiens, UniProt P03372, H356A); test: as above; settings: MDA-MB-231 transfected with mutant ER, E2 10 nM, 24 hr
T4 construct: expressed in transfected cells; host or cells: MDA-MB-231
From the text: as §1, §2

ER Ile326Ala = biological target: T5, ER Ile326Ala (Homo sapiens, UniProt P03372, I326A); test: as above; settings: MDA-MB-231 transfected with mutant ER, E2 10 nM, 24 hr
T5 construct: expressed in transfected cells; host or cells: MDA-MB-231
From the text: as §1, §2

ER Pro324Ala = biological target: T6, ER Pro324Ala (Homo sapiens, UniProt P03372, P324A); test: as above; settings: MDA-MB-231 transfected with mutant ER, E2 10 nM, 24 hr
T6 construct: expressed in transfected cells; host or cells: MDA-MB-231
From the text: as §1, §2

ER Ile386Ala = biological target: T7, ER Ile386Ala (Homo sapiens, UniProt P03372, I386A); test: as above; settings: MDA-MB-231 transfected with mutant ER, E2 10 nM, 24 hr
T7 construct: expressed in transfected cells; host or cells: MDA-MB-231
From the text: as §1, §2

T4 sequence (P03372 whole entry H356A): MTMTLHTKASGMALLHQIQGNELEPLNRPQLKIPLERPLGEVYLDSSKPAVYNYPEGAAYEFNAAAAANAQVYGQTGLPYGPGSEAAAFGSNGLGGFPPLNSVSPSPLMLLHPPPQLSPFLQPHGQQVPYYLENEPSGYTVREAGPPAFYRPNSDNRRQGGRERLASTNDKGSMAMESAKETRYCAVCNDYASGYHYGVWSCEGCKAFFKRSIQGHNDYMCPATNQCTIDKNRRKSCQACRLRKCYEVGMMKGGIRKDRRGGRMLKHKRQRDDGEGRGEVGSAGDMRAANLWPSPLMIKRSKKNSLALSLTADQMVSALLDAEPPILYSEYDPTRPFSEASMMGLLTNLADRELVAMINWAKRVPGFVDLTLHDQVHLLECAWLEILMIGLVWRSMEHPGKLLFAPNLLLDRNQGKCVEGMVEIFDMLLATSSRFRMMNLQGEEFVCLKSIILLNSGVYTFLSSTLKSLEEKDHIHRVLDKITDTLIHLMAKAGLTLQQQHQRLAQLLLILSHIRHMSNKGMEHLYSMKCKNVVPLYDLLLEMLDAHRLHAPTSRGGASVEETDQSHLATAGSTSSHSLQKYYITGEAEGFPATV
T3 sequence (P03372 whole entry W393A): as the sequence (P03372 whole entry H356A) above, with A356H, W393A counted along it
T2 sequence (P03372 whole entry E353A): as the sequence (P03372 whole entry H356A) above, with E353A, A356H counted along it
T6 sequence (P03372 whole entry P324A): as the sequence (P03372 whole entry H356A) above, with P324A, A356H counted along it
T5 sequence (P03372 whole entry I326A): as the sequence (P03372 whole entry H356A) above, with I326A, A356H counted along it
T1 sequence (P03372 whole entry): as the sequence (P03372 whole entry H356A) above, with A356H counted along it
T7 sequence (P03372 whole entry I386A): as the sequence (P03372 whole entry H356A) above, with A356H, I386A counted along it

O=C(CC(c1ccccc1)N1CCCCC1)c1ccccc1 (stereo not shown) [35446-L/1, 1,3-diphenyl-3-(piperidin-1-yl)propan-1-one]
inhibition at 20 µM (ER-α): > 90%
IC50 (ER Glu353Ala): > 10 µM
IC50 (ER Trp393Ala): > 15 µM
IC50 (ER His356Ala): 0.8 µM
IC50 (ER Ile326Ala): 4 µM
IC50 (ER Pro324Ala): > 15 µM
IC50 (ER Ile386Ala): 4 µM
